Patent US20130165679A1, “ALPHA-GLUCOSIDASE INHIBITOR” (priority 2011, published 2013)
In brackets after ≈: the same amount, converted by molar mass. Read-outs that look alike come from different tables or passages of the source.

Tested on: α-glucosidase
Format: biochemical
Settings: for IC50 (concentration to obtain 50% enzyme inhibitory activity): obtained by interpolation from inhibition rate data
Experimental: Examples of unsaturated fatty acid used to analyze its enzyme inhibitive activity as a α-glucosidase inhibitor include oleic acid (Ω9), linoleic acid (Ω6), and α-linolenic acid (Ω3).
In the analytical method, p-nitrophenyl-α-D-glucopyranoside was used as a substrate. The absorbance was measured by spectrophotometry to determine the α-glucosidase inhibition activity of samples (Apostolidis E. Lee C M. In vitro potential of Ascophyllum nodosam phenolic antioxidant-mediated alpha-glucosidase and alpha-amylase inhibition. Journal of Food Science 2010, 75:H97-102; Kang W Y, Song Y L, Zhang L. α-Glucosidase inhibitory and antioxidant properties and antidiabetic activity of Hypericum ascyron L. Medicinal Chemistry Research 2011.20:809-816).
To a 1.5 ml eppendorf tube containing 0.05 ml of sample solution (in 5% methanol), 0.1 ml of α-glucosidase solution (2 U/ml; in 100 mM phosphate buffer, pH 6.9) was added. The mixture was incubated in 37° C. water bath for 10 min, and then 0.05 ml of 5 mM p-nitrophenyl-α-D-glucopyranoside (in 100 mM phosphate buffer, pH 6.9) was added and mixed homogeneously. The mixture was incubated in 37° C. water bath for 10 min, and then in boiling water for 5 min to stop the reaction. After the addition of 1 ml of deionized water, the absorbance at 405 nm was measured by spectrophotometer (U-1800, Hitachi. Tokyo, Japan). • 1. Determining the α-glucosidase inhibition activity of oleic acid (as the α-glucosidase inhibitor): • A. Experimental group: enzyme+substrate+unsaturated fat acid (oleic acid) • B. Control: enzyme+substrate+buffer • C. Background: buffer+buffer+unsaturated fatty acid (oleic acid) • Calculation of the rate of inhibition:
Inhibition rate %=[ODControl−(ODExperimental group−ODBackground)]/ODControl×100%

Inhibition rate (%) (0.04 mg/ml)	Inhibition rate (%) (0.0500 mg/ml)	Inhibition rate (%) (0.06 mg/ml)	IC50 (concentration to obtain 50% enzyme inhibitory activity) [µg/mL]	Inhibition rate (%) (0.0125 mg/ml)	Inhibition rate (%) (0.0250 mg/ml)	Inhibition rate (%) (0.01 mg/ml)	Inhibition rate (%) (0.02 mg/ml)	SMILES
31.6 ± 1.80	57.5 ± 2.39	81.0 ± 0.13	47 (≈ 169 µM)					CC/C=C\C/C=C\C/C=C\CCCCCCCC(=O)O [α-linolenic acid]
	91.60 ± 0.62		33 (≈ 118 µM)	2.99 ± 0.36	30.10 ± 0.54			CCCCC/C=C\C/C=C\CCCCCCCC(=O)O [linoleic acid]
96.7 ± 0.06			22 (≈ 77.9 µM)			11.8 ± 0.99	52.2 ± 0.55	CCCCCCCC/C=C\CCCCCCCC(=O)O [oleic acid]
